Test results from article PMC6316200, “Ceratinadins E and F, New Bromotyrosine Alkaloids from an Okinawan Marine Sponge Pseudoceratina sp” (Marine Drugs, 2018).
Converted amounts (≈) assume the structure as drawn. Where two headings read alike, the source gives them in different places.

Tests used:
[1] = test system: Plasmodium falciparum K1 strain; assay: Antimalarial activity in vitro against drug-resistant P. falciparum K1 strain; assay type: cell-based; settings: for IC50: Plasmodium falciparum; for Selectivity Index MRC-5/K1: ratio of IC50 MRC-5 to IC50 K1
Excerpt: (§1) The antimalarial activities of psammaplysin F (3), ceratinadin E (1), and ceratinadin F (2) against a drug-resistant and a drug-sensitive strains of Plasmodium falciparum (K1 and FCR3 strains, respectively) were examined, see Table 2 [16].

[2] = test system: Plasmodium falciparum FCR3 strain; assay: Antimalarial activity in vitro against drug-sensitive P. falciparum FCR3 strain; assay type: cell-based; settings: for IC50: Plasmodium falciparum; for Selectivity Index MRC-5/FCR3: ratio of IC50 MRC-5 to IC50 FCR3
Excerpt: as §1

[3] = Cytotoxicity against MRC-5 cells; assay type: cell-based, human
[4] = test system: MRC-5 (normal human embryonic lung fibroblast); assay: Cytotoxicity against MRC-5 cells; assay type: cell-based
[5] = drug-resistant P. falciparum strain K1, in vitro, read-out: Antimalarial Activity K1, IC50
[6] = drug-sensitive P. falciparum strain FCR3, in vitro, read-out: Antimalarial Activity FCR3, IC50
[7] = human, MRC-5 cells (normal human embryonic lung fibroblasts)

| Compound | IC50 [1, 5] | Selectivity Index MRC-5/K1 [1] | IC50 [2, 6] | Selectivity Index MRC-5/FCR3 [2] | IC50 [3, 7] | other results |
| --- | --- | --- | --- | --- | --- | --- |
| C[C@@H]1CC[C@H]2[C@@H](C)C(=O)O[C@@H]3O[C@@]4(C)CC[C@@H]1[C@]32OO4 [Artemisinin, reference compound] | 0.01 µg/mL (≈ 0.0354 µM) | >1412 | 0.0088 µg/mL (≈ 0.0312 µM) | >1604.5 | > 14.1 µg/mL |  |
| CNCCc1cc(Br)c(OCCCNC(=O)N(C)CCc2cc(Br)c(OCCCNC(=O)C3=NO[C@]4(CC(Br)=C(OC)C(Br)=CO4)[C@@H]3O)c(Br)c2)c(Br)c1 [Ceratinadin E (1), ceratinadin E] | 1.03 µg/mL (≈ 0.904 µM) | 15.5 | 0.77 µg/mL (≈ 0.676 µM) | 20.8 | 16 µg/mL (≈ 14 µM) |  |
| CNCCc1cc(Br)c(OCCCNC(=O)N(C)CCc2cc(Br)c(OCCCNC(=O)N(C)CCc3cc(Br)c(OCCCNC(=O)C4=NO[C@]5(CC(Br)=C(OC)C(Br)=CO5)[C@@H]4O)c(Br)c3)c(Br)c2)c(Br)c1 [Ceratinadin F (2), ceratinadin F] | > 12.5 µg/mL | >4 |  |  | > 50 µg/mL | antimalarial activity (in words) ([1]; P. falciparum in vitro, strain not named, only K1 examined for this compound): did not show significant antimalarial activity |
| CCN(CC)CCCC(C)Nc1ccnc2cc(Cl)ccc12 (centres unmarked) [Chloroquine, reference compound] |  |  |  |  |  | IC50 ([1]; K1, read-out: Antimalarial Activity K1, IC50): 0.34 µg/mL (≈ 1.06 µM); IC50 ([2]; FCR3, read-out: Antimalarial Activity FCR3, IC50): 0.035 µg/mL (≈ 0.109 µM); IC50 ([3]; normal human embryonic lung fibroblast): > 25.8 µg/mL |
| psammaplysin F [Psammaplysin F (3)] |  |  |  |  |  | Antimalarial Activity K1, IC50 ([1]; drug-resistant P. falciparum strain K1, in vitro): 3.77 µg/mL; Antimalarial Activity FCR3, IC50 ([2]; drug-sensitive P. falciparum strain FCR3, in vitro): 2.45 µg/mL; Cytotoxicity MRC-5, IC50 [4]: 12.65 µg/mL |
